# Numbers after ± are expanded uncertainties.
# Assay: activity coefficient (dimensionless); of the first substance listed, at infinite dilution; xn = mol fraction of the nth substance listed
# Settings: 101 kPa, Liquid, Chromatography, x1 = 0
SMILES,activity coefficient (318.15 K),activity coefficient (328.15 K),activity coefficient (338.15 K),activity coefficient (348.15 K),activity coefficient (358.15 K),activity coefficient (308.15 K)
"Cc1ccccc1C [1,2-dimethylbenzene] + CCCC[n+]1cccc(C)c1.O=S(=O)([O-])C(F)(F)F",2.16 ± 0.15,2.2 ± 0.15,2.25 ± 0.15,2.29 ± 0.16,2.33 ± 0.16,–
"Cc1cccc(C)c1 [1,3-dimethylbenzene] + CCCC[n+]1cccc(C)c1.O=S(=O)([O-])C(F)(F)F",2.57 ± 0.17,2.62 ± 0.18,2.67 ± 0.18,2.71 ± 0.18,2.76 ± 0.19,–
"Cc1ccc(C)cc1 [1,4-dimethylbenzene] + CCCC[n+]1cccc(C)c1.O=S(=O)([O-])C(F)(F)F",2.46 ± 0.17,2.52 ± 0.17,2.57 ± 0.17,2.62 ± 0.18,2.68 ± 0.18,–
C#CCCCCC [1-heptyne] + CCCC[n+]1cccc(C)c1.O=S(=O)([O-])C(F)(F)F,4.18 ± 0.28,4.28 ± 0.29,4.37 ± 0.3,4.46 ± 0.3,4.53 ± 0.31,4.09 ± 0.28
C#CCCCCCC [1-octyne] + CCCC[n+]1cccc(C)c1.O=S(=O)([O-])C(F)(F)F,5.88 ± 0.4,5.97 ± 0.41,6.05 ± 0.41,6.14 ± 0.42,6.23 ± 0.42,–
CC(C)=O [acetone] + CCCC[n+]1cccc(C)c1.O=S(=O)([O-])C(F)(F)F,0.752 ± 0.049,0.762 ± 0.05,0.77 ± 0.05,0.776 ± 0.051,0.783 ± 0.051,0.743 ± 0.049
c1ccccc1 [benzene] + CCCC[n+]1cccc(C)c1.O=S(=O)([O-])C(F)(F)F,1.23 ± 0.08,1.25 ± 0.08,1.27 ± 0.08,1.29 ± 0.08,1.31 ± 0.09,1.2 ± 0.08
CCCCO [butan-1-ol] + CCCC[n+]1cccc(C)c1.O=S(=O)([O-])C(F)(F)F,1.42 ± 0.09,1.34 ± 0.09,1.26 ± 0.08,1.2 ± 0.08,1.15 ± 0.07,–
C1CCCCC1 [cyclohexane] + CCCC[n+]1cccc(C)c1.O=S(=O)([O-])C(F)(F)F,12.4 ± 0.8,11.7 ± 0.8,11.1 ± 0.8,10.6 ± 0.7,10.1 ± 0.7,13.2 ± 0.9
C1CCCCCCC1 [cyclooctane] + CCCC[n+]1cccc(C)c1.O=S(=O)([O-])C(F)(F)F,19.8 ± 1.4,18.6 ± 1.3,17.5 ± 1.2,16.5 ± 1.1,15.7 ± 1.1,–
CCOCC [diethyl ether] + CCCC[n+]1cccc(C)c1.O=S(=O)([O-])C(F)(F)F,4.24 ± 0.29,4.18 ± 0.28,4.14 ± 0.28,4.1 ± 0.28,4.07 ± 0.28,4.29 ± 0.29
CCO [ethanol] + CCCC[n+]1cccc(C)c1.O=S(=O)([O-])C(F)(F)F,0.907 ± 0.058,0.867 ± 0.055,0.827 ± 0.053,0.79 ± 0.051,0.759 ± 0.05,–
CCCCCC [hexane] + CCCC[n+]1cccc(C)c1.O=S(=O)([O-])C(F)(F)F,23.2 ± 1.6,22.1 ± 1.5,20.9 ± 1.4,20 ± 1.4,19.1 ± 1.3,24.7 ± 1.7
C=CCCCCCC [oct-1-ene] + CCCC[n+]1cccc(C)c1.O=S(=O)([O-])C(F)(F)F,23.2 ± 1.6,22.3 ± 1.5,21.5 ± 1.5,20.8 ± 1.4,20 ± 1.4,24.3 ± 1.7
CCCCCCCC [octane] + CCCC[n+]1cccc(C)c1.O=S(=O)([O-])C(F)(F)F,46.3 ± 3.2,43.4 ± 3,40.7 ± 2.8,38.5 ± 2.6,36.2 ± 2.5,49.6 ± 3.4
CCC(=O)CC [pentan-3-one] + CCCC[n+]1cccc(C)c1.O=S(=O)([O-])C(F)(F)F,1.39 ± 0.09,1.42 ± 0.09,1.44 ± 0.09,1.46 ± 0.1,1.48 ± 0.1,–
CCCCC [pentane] + CCCC[n+]1cccc(C)c1.O=S(=O)([O-])C(F)(F)F,17.3 ± 1.2,16.4 ± 1.1,15.5 ± 1.1,14.8 ± 1,14.1 ± 1,18.5 ± 1.3
CCCO [propan-1-ol] + CCCC[n+]1cccc(C)c1.O=S(=O)([O-])C(F)(F)F,1.11 ± 0.07,1.06 ± 0.07,1 ± 0.06,0.958 ± 0.06,0.919 ± 0.058,–
C1CCOC1 [tetrahydrofuran] + CCCC[n+]1cccc(C)c1.O=S(=O)([O-])C(F)(F)F,1.2 ± 0.08,1.21 ± 0.08,1.23 ± 0.08,1.24 ± 0.08,1.25 ± 0.08,1.19 ± 0.08
Cc1ccccc1 [toluene] + CCCC[n+]1cccc(C)c1.O=S(=O)([O-])C(F)(F)F,1.76 ± 0.12,1.79 ± 0.12,1.82 ± 0.12,1.85 ± 0.12,1.88 ± 0.13,–

# The remaining lines, values ahead:
activity coefficient (318.15 K),activity coefficient (328.15 K),activity coefficient (338.15 K),activity coefficient (348.15 K),activity coefficient (358.15 K),activity coefficient (308.15 K),SMILES
16.4 ± 1.1,15.9 ± 1.1,15.4 ± 1.1,15 ± 1,14.5 ± 1,17.1 ± 1.2,C=CCCCCC [1-heptene] + CCCC[n+]1cccc(C)c1.O=S(=O)([O-])C(F)(F)F
2.94 ± 0.2,3.03 ± 0.21,3.11 ± 0.21,3.19 ± 0.22,3.27 ± 0.22,2.86 ± 0.19,C#CCCCC [1-hexyne] + CCCC[n+]1cccc(C)c1.O=S(=O)([O-])C(F)(F)F
8.44 ± 0.58,8.23 ± 0.56,8.03 ± 0.55,7.88 ± 0.54,7.73 ± 0.53,8.67 ± 0.59,C=CCCC [1-pentene] + CCCC[n+]1cccc(C)c1.O=S(=O)([O-])C(F)(F)F
4.22 ± 0.29,4.23 ± 0.29,4.23 ± 0.29,4.24 ± 0.29,4.24 ± 0.29,4.21 ± 0.29,COC(C)(C)C [2-methoxy-2-methylpropane] + CCCC[n+]1cccc(C)c1.O=S(=O)([O-])C(F)(F)F
15.4 ± 1.1,14.6 ± 1,13.8 ± 0.9,13.2 ± 0.9,12.5 ± 0.9,16.4 ± 1.1,C1CCCCCC1 [cycloheptane] + CCCC[n+]1cccc(C)c1.O=S(=O)([O-])C(F)(F)F
8.89 ± 0.61,8.51 ± 0.58,8.15 ± 0.56,7.8 ± 0.53,7.54 ± 0.51,9.4 ± 0.64,C1CCCC1 [cyclopentane] + CCCC[n+]1cccc(C)c1.O=S(=O)([O-])C(F)(F)F
94.9 ± 6.5,87.6 ± 6,80.2 ± 5.5,74.6 ± 5.1,69.5 ± 4.8,104 ± 7.2,CCCCCCCCCC [decane] + CCCC[n+]1cccc(C)c1.O=S(=O)([O-])C(F)(F)F
10.1 ± 0.7,9.86 ± 0.67,9.6 ± 0.65,9.35 ± 0.64,9.14 ± 0.62,10.4 ± 0.7,CCCOCCC [dipropyl ether] + CCCC[n+]1cccc(C)c1.O=S(=O)([O-])C(F)(F)F
2.76 ± 0.19,2.78 ± 0.19,2.8 ± 0.19,2.81 ± 0.19,2.83 ± 0.19,–,CCc1ccccc1 [ethylbenzene] + CCCC[n+]1cccc(C)c1.O=S(=O)([O-])C(F)(F)F
32.7 ± 2.2,30.8 ± 2.1,29 ± 2,27.5 ± 1.9,26.1 ± 1.8,35.1 ± 2.4,CCCCCCC [heptane] + CCCC[n+]1cccc(C)c1.O=S(=O)([O-])C(F)(F)F
11.5 ± 0.8,11.2 ± 0.8,10.9 ± 0.7,10.6 ± 0.7,10.3 ± 0.7,11.9 ± 0.8,C=CCCCC [hex-1-ene] + CCCC[n+]1cccc(C)c1.O=S(=O)([O-])C(F)(F)F
0.642 ± 0.044,0.617 ± 0.043,0.592 ± 0.042,0.57 ± 0.041,0.551 ± 0.04,–,CO [methanol] + CCCC[n+]1cccc(C)c1.O=S(=O)([O-])C(F)(F)F
65.9 ± 4.5,61.1 ± 4.2,56.8 ± 3.9,53.2 ± 3.6,49.9 ± 3.4,71.7 ± 4.9,CCCCCCCCC [nonane] + CCCC[n+]1cccc(C)c1.O=S(=O)([O-])C(F)(F)F
1.35 ± 0.09,1.36 ± 0.09,1.38 ± 0.09,1.39 ± 0.09,1.41 ± 0.09,–,CCCC(C)=O [pentan-2-one] + CCCC[n+]1cccc(C)c1.O=S(=O)([O-])C(F)(F)F
0.898 ± 0.057,0.919 ± 0.058,0.937 ± 0.059,0.955 ± 0.06,0.972 ± 0.061,–,c1ccsc1 [thiophene] + CCCC[n+]1cccc(C)c1.O=S(=O)([O-])C(F)(F)F
0.89 ± 0.057,0.857 ± 0.055,0.82 ± 0.053,0.789 ± 0.051,0.765 ± 0.05,–,O [water] + CCCC[n+]1cccc(C)c1.O=S(=O)([O-])C(F)(F)F

# — the NIST ThermoML archive (doi:10.1021/je1000582)
